From patent USRE31731E, “Herbicidal 4-trifluoromethyl-4-nitrodiphenyl ethers” (priority 1978, dated 1984) come the findings set out here.

Format in all cases: in vivo
Data set [1] concerns Monocots. Put plainly: Herbicidal activity, preemergence, monocot weeds (Table II). Conditions: pre-emergence, 336 h, about 2 weeks, read-out: % control (percent of plants killed); for pest or weed control at 2241.7 g/ha: 2 lb./A.; for pest or weed control at 4483.4 g/ha: 4 lb./A. Put shortly: (§1)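 Value is mean percent kill, judged roughly 2 weeks post-treatment. Acetone/water spray at 50 gal/A, given either right after sowing in soil flats (preemergence) or once seedlings were 2 weeks old (postemergence); rates in lb/A.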

Data set [2] relates to Dicots. The experiment in a line: Herbicidal activity, preemergence, dicot weeds (Table II). Conditions: pre-emergence, 336 h, about 2 weeks, read-out: % control (percent of plants killed); for pest or weed control at 2241.7 g/ha: 2 lb./A.; for pest or weed control at 4483.4 g/ha: 4 lb./A. Put shortly:
(§2)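 Plants were scored roughly 2 weeks post-treatment for percent kill (average percent control). Treatment was an acetone–water spray in 50 gal/acre carrier at the listed pounds per acre, applied either immediately after sowing or to 2-week-old seedlings.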

The next data set concerns snapbeans. Put plainly: Crop tolerance, snapbeans. The following applies: preemergence; 50% or less kill of crop at rates giving more than 50% kill of weeds. The procedure: (§3) The following test procedure is employed. Seeds of selected crops and weeds are planted in soil in flats. For preemergence tests, the flats are treated with the test compound immediately after the planting. For postemergence tests, the seeds are allowed to germinate, and after 2 weeks the flats are treated with the test compound. The compound to be evaluated is dissolved in acetone, diluted with water, and sprayed over the flats using a carrier volume equivalent to 50 gallons per acre at the rate of application (pounds per acre, lb/A.) specified in the tables. About 2 weeks after the application of the test compound, the state of growth of the plants is observed and the phytotoxic effect of the compound is evaluated. Table II gives the average percent control achieved by the test compounds in terms of the percent of the plants which are killed by the compounds.
(§4) Following the general test procedure of Example 73, diphenyl ethers are evaluated for significant tolerance (as shown by 50% or less kill of the test crop at levels of application which give more than 50% kill of many or all of the weeds of Example 73) towards some or all of the following common agronomic crops (not all compounds tested against all crops): alfalfa, snapbeans, corn, cotton, cucumbers, peanuts, rape, rice, safflower, soybeans, tomatoes, and wheat.

A further data set concerns corn. The experiment in a line: Crop tolerance, corn. The following applies: 50% or less kill of crop at rates giving more than 50% kill of weeds. The procedure:
as §3, §4

The subject of a further data set is wheat. Put plainly: Crop tolerance, wheat. Conditions: 50% or less kill of crop at rates giving more than 50% kill of weeds. The procedure:
as §3, §4

For the next data set, the system named is soybeans. The experiment in a line: Crop tolerance, soybeans. Conditions: 50% or less kill of crop at rates giving more than 50% kill of weeds. As for the experimental part: as §3, §4
Data set [3] deals with Monocots. The experiment in a line: Herbicidal activity, postemergence, monocot weeds (Table II). The following applies: post-emergence, 336 h, about 2 weeks, read-out: % control (percent of plants killed); for pest or weed control at 2241.7 g/ha: 2 lb./A.; for pest or weed control at 4483.4 g/ha: 4 lb./A. Put shortly:
as §1

Data set [4] relates to Dicots. Put plainly: Herbicidal activity, postemergence, dicot weeds (Table II). Conditions: post-emergence, 336 h, about 2 weeks, read-out: % control (percent of plants killed); for pest or weed control at 2241.7 g/ha: 2 lb./A.; for pest or weed control at 4483.4 g/ha: 4 lb./A. Put shortly: as §2
The test system of a further data set is peanuts. Put plainly: Crop tolerance, peanuts. The following applies: 50% or less kill of crop at rates giving more than 50% kill of weeds. The procedure: as §3, §4
The subject of the next data set is cotton. The experiment in a line: Crop tolerance, cotton. The following applies: 50% or less kill of crop at rates giving more than 50% kill of weeds. As for the experimental part: as §3, §4
The subject of the next data set is rice. The experiment in a line: Crop tolerance, rice. Conditions: 50% or less kill of crop at rates giving more than 50% kill of weeds. The procedure: as §3, §4
In the next data set the test system is safflower. Put plainly: Crop tolerance, safflower. The following applies: preemergence; 50% or less kill of crop at rates giving more than 50% kill of weeds. As for the experimental part: as §3, §4
The mark [5] stands for this setting: postemergence or on transplanted rice.

On to `CCOC(=O)C(C)Oc1cc(Oc2ccc(C(F)(F)F)cc2Cl)ccc1[N+](=O)[O-]` (stereo not drawn) [Example 26, 2-Chloro-α,α,α-trifluoro-p-tolyl-3-(1-carbethoxyethoxy)-4-nitrophenyl ether], for which the pest or weed control at 2241.7 g/ha in the data set with Monocots [1] is 75%; with Dicots [2], 99%; in the data set with Monocots [3] it was 93%; with Dicots [4], 100%. Moreover, the pest or weed control at 4483.4 g/ha in the data set on Monocots [1] was determined as 98%; in the data set with Dicots [2], 100%; with Monocots [3], 99%; in the data set on Dicots [4], 100%. For the same molecule, the Tolerance to snapbeans entry with snapbeans was “Tolerance”. Moreover, in the data set with corn (postemergence), the Tolerance to corn entry was “Tolerance”. Besides, in the data set with wheat (preemergence), the Tolerance to wheat entry is given as “Tolerance”. In the data set on soybeans (preemergence), the Tolerance to soybeans result was “Tolerance”.

`CC(C)Oc1cc(Oc2ccc(C(F)(F)F)cc2Cl)ccc1[N+](=O)[O-]` [Example 4]: in the data set on peanuts (postemergence), the Tolerance to peanuts entry is “Tolerance”. Moreover, the pest or weed control at 4483.4 g/ha was determined as 98% in the data set on Monocots [1], 100% in the data set on Dicots [2], 80% with Monocots [3] and 100% in the data set on Dicots [4]. The Tolerance to snapbeans result in the data set on snapbeans was “Tolerance”. For the same molecule, the Tolerance to corn entry in the data set on corn (postemergence) and in the data set with corn (preemergence) was “Tolerance” throughout. In addition, the Tolerance to wheat result in the data set with wheat (postemergence) and in the data set with wheat (preemergence) was “Tolerance” throughout. For the same molecule, in the data set with soybeans (preemergence), the Tolerance to soybeans entry is on record as “Tolerance”. Besides, in the data set with cotton (preemergence), the Tolerance to cotton result is on record as “Tolerance”. Further, the Tolerance to rice result with rice (preemergence) is reported as “Tolerance”.

As for `C#CC(C)Oc1cc(Oc2ccc(C(F)(F)F)cc2Cl)ccc1[N+](=O)[O-]` (stereo not drawn) [Example 30], the Tolerance to peanuts entry in the data set with peanuts (preemergence) is on record as “Tolerance”. Besides, the pest or weed control at 2241.7 g/ha in the data set on Monocots [1] was found to be 78%; in the data set on Dicots [2] it was 94%; in the data set on Monocots [3], 91%; in the data set with Dicots [4], 100%. Also, the pest or weed control at 4483.4 g/ha with Monocots [1] was determined as 81%; with Dicots [2], 99%; with Monocots [3], 75%; in the data set with Dicots [4], 100%. Besides, the Tolerance to wheat entry in the data set with wheat (postemergence) is given as “Tolerance”. In the data set with soybeans (preemergence), the Tolerance to soybeans entry is “Tolerance”. Further, the Tolerance to cotton entry in the data set with cotton (preemergence) is given as “Tolerance”. The Tolerance to rice result with rice (setting [5]) and with rice (preemergence) was “Tolerance” each time.

For the molecule `CCOc1cc(Oc2ccc(C(F)(F)F)cc2Cl)ccc1[N+](=O)[O-]` [Example 3, 2-Chloro-α,α,α-trifluoro-p-tolyl-3-ethoxy-4-nitrophenyl ether], in the data set with peanuts (preemergence), the Tolerance to peanuts entry is “Tolerance”. In addition, the pest or weed control at 4483.4 g/ha was 89% in the data set on Monocots [1], 99% in the data set with Dicots [2], 99% in the data set on Monocots [3] and 100% with Dicots [4]. Further, the pest or weed control at 11208.5 g/ha turned out to be 99% with Monocots [1] (10 lb./A.), 100% in the data set with Dicots [2] (10 lb./A.), 100% with Monocots [3] (10 lb./A.) and 100% with Dicots [4] (10 lb./A.). The Tolerance to safflower result with safflower was “Tolerance”. Also, the Tolerance to soybeans entry in the data set with soybeans (postemergence or layby) and in the data set with soybeans (preemergence) was “Tolerance” throughout. Further, the Tolerance to cotton result in the data set on cotton (postemergence or layby) and in the data set on cotton (preemergence) was “Tolerance” each time. Also, in the data set with rice (setting [5]), the Tolerance to rice result is given as “Tolerance”.
